Measurements as given in the NIST ThermoML archive (doi:10.1016/j.fluid.2016.07.022).

Key:
[1] = 101.33 kPa, Liquid; for viscosity: Falling or rolling sphere viscometry; for speed of sound: Frequency=3 MHz, Single path-length method; for mass density: Vibrating tube method
[2] = wn = mass fraction of the nth substance listed; settings: 298.15 K, 100 kPa, Liquid; for viscosity: Falling or rolling sphere viscometry; for speed of sound: Frequency=3 MHz, Single path-length method; for mass density: Vibrating tube method

CC(=O)[O-].CCCC[NH2+]CCO [N-(2-hydroxyethyl)butan-1-aminium acetate]
[1]
Settings	mass density [kg/m3]	speed of sound [m/s]	viscosity [mPa·s]
293.15 K	1021.2	1566.5	548.2
298.15 K	1017.8	1546.5	421.6
303.15 K	1014.3	1528.1	295.4
308.15 K	1010.8	1510.8	214.5
313.15 K	1007.3	1494	158.4
318.15 K	1003.8	1477.6	119
323.15 K	1000.3	1461.4	89.4
328.15 K	996.6	1445.2	68.6
333.15 K	993	1429.3	54
338.15 K	989.3	1413.2	42.9
343.15 K	985.6	1397.2	34.5

CCCC(=O)[O-].CCCC[NH2+]CCO [N-(2-hydroxyethyl)butan-1-aminium butyrate]
[1]
Settings	mass density [kg/m3]	speed of sound [m/s]	viscosity [mPa·s]
293.15 K	983.7	1484.6	748.6
298.15 K	980.1	1466.6	576.8
303.15 K	976.6	1449	435.9
308.15 K	973	1431.9	318.9
313.15 K	969.4	1415.2	231.6
318.15 K	965.7	1398.7	158.1
323.15 K	962	1382.4	122.4
328.15 K	958.3	1366.2	92.6
333.15 K	954.5	1350.2	69.8
338.15 K	950.7	1334.1	55.2
343.15 K	946.9	1318.2	43.1

CCCC(=O)[O-].CCCC[NH2+]CCO [N-(2-hydroxyethyl)butan-1-aminium butyrate] + O
[2]
Settings	mass density [kg/m3]	speed of sound [m/s]	viscosity [mPa·s]
w2 = 0.002762	980.15	1464.6	197.67
w2 = 0.004186	981.17	1466.2	190.86
w2 = 0.005795	982.18	1467.9	185.52
w2 = 0.006761	982.74	1468.9	182.63

CCCC[NH2+]CCO.O=C[O-] [N-(2-hydroxyethyl)butan-1-aminium formate]
[1]
Settings	mass density [kg/m3]	speed of sound [m/s]	viscosity [mPa·s]
293.15 K	1038.1	1616.5	474.4
298.15 K	1035.1	1602.4	332.8
303.15 K	1032.1	1588.4	234.2
308.15 K	1029.1	1574.7	170.2
313.15 K	1026.1	1561.4	128.3
318.15 K	1023.1	1548.2	96.9
323.15 K	1020.1	1535.1	75
328.15 K	1017	1522.2	57.3
333.15 K	1013.9	1509.2	45.7
338.15 K	1010.9	1496.4	36.3
343.15 K	1007.8	1483.4	29.3

CCCCC(=O)[O-].CCCC[NH2+]CCO [N-(2-hydroxyethyl)butan-1-aminium pentanoate]
[1]
Settings	mass density [kg/m3]	speed of sound [m/s]	viscosity [mPa·s]
293.15 K	970	1460	896.3
298.15 K	966.5	1442.3	684.1
303.15 K	963	1425.1	505.8
308.15 K	959.4	1408.3	349.9
313.15 K	955.8	1391.8	244.1
318.15 K	952.2	1375.7	177.1
323.15 K	948.5	1359.6	131.1
328.15 K	944.8	1343.8	98.1
333.15 K	941.1	1328	73.9
338.15 K	937.4	1312.2	57.9
343.15 K	933.6	1296.6	45.4

CCC(=O)[O-].CCCC[NH2+]CCO [N-(2-hydroxyethyl)butan-1-aminium propionate]
[1]
Settings	mass density [kg/m3]	speed of sound [m/s]	viscosity [mPa·s]
293.15 K	1004.9	1513.8	675.6
298.15 K	1001.4	1496.1	502.6
303.15 K	997.9	1478.9	385.1
308.15 K	994.4	1462.2	282.1
313.15 K	990.8	1445.9	212
318.15 K	987.3	1429.7	155
323.15 K	983.6	1413.7	115.6
328.15 K	979.9	1397.4	87.6
333.15 K	976.3	1381.6	67.4
338.15 K	972.5	1365.8	52.4
343.15 K	968.8	1350.1	41.6
